# Assay results taken from ChEMBL document CHEMBL6109125, “A New Protractor Potentiates Glucagon-Like Peptide 1 with Slow-Release Depot and Long-Term Action” (J Med Chem, 2025).
# Legend:
# Format in all cases: functional, cell-based
# Conditions in all cases: read-out: EC50
# [1] = biological target: T1, Glucagon-like peptide 1 receptor (Homo sapiens, UniProt P43220); assay: Agonist activity at GLP-1R (unknown origin) expressed in HEK293 cells co-expressing CRE-Luc assessed as increase in intracellular cAMP accumulation in presence of 2% HSA by luciferase based assay
# T1 sequence (P43220 whole entry): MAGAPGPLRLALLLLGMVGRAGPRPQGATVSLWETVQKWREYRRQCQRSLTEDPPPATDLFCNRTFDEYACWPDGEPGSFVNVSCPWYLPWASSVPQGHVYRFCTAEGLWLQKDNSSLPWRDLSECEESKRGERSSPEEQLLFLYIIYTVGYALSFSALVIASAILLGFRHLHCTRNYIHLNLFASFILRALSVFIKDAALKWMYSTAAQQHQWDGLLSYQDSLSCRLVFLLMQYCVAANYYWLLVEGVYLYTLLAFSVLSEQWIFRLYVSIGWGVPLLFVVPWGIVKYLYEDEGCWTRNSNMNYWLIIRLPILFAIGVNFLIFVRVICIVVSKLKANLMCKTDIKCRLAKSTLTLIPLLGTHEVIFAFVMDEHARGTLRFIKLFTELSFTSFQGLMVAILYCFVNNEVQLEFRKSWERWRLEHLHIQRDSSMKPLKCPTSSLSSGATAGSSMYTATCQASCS
# [2] = biological target: T1, Glucagon-like peptide 1 receptor; assay: Agonist activity at GLP-1R (unknown origin) expressed in HEK293 cells co-expressing CRE-Luc assessed as increase in intracellular cAMP accumulation by luciferase based assay
# [3] = biological target: T1, Glucagon-like peptide 1 receptor; assay: Agonist activity at GLP-1R (unknown origin) expressed in HEK293 cells co-expressing CRE-Luc assessed as increase in intracellular cAMP accumulation in presence of 10% FBS by luciferase based assay
SMILES,EC50 [1] [pM],EC50 [2] [pM],EC50 [3] [pM]
CCOc1ccc(Nc2ccc(/C(=C3C=C/C(=[N+](\CC)Cc4cccc(S(=O)(=O)[O-])c4)C=C/3C)c3ccc(N(CC)Cc4cccc(S(=O)(=O)NCCCCCC(=O)N[C@@H](CS(=O)(=O)O)C(=O)N[C@@H](CS(=O)(=O)O)C(=O)NCCCC[C@H](NC(=O)[C@H](C)NC(=O)[C@H](C)NC(=O)[C@H](CCC(N)=O)NC(=O)CNC(=O)[C@H](CCC(=O)O)NC(=O)[C@H](CC(C)C)NC(=O)[C@H](Cc5ccc(O)cc5)NC(=O)[C@H](CO)NC(=O)[C@H](CO)NC(=O)[C@@H](NC(=O)[C@H](CC(=O)O)NC(=O)[C@H](CO)NC(=O)[C@@H](NC(=O)[C@H](Cc5ccccc5)NC(=O)[C@@H](NC(=O)CNC(=O)[C@H](CCC(=O)O)NC(=O)C(C)(C)NC(=O)[C@@H](N)Cc5c[nH]cn5)[C@@H](C)O)[C@@H](C)O)C(C)C)C(=O)N[C@@H](CCC(=O)O)C(=O)N[C@@H](Cc5ccccc5)C(=O)N[C@H](C(=O)N[C@@H](C)C(=O)N[C@@H](Cc5c[nH]c6ccccc56)C(=O)N[C@@H](CC(C)C)C(=O)N[C@H](C(=O)N[C@@H](CCCNC(=N)N)C(=O)NCC(=O)N[C@@H](CCCNC(=N)N)C(=O)NCC(=O)O)C(C)C)[C@@H](C)CC)c4)cc3C)cc2)cc1,7.08,1.66,6.98
CCOc1ccc(Nc2ccc(/C(=C3C=C/C(=[N+](\CC)Cc4cccc(S(=O)(=O)[O-])c4)C=C/3C)c3ccc(N(CC)Cc4cccc(S(=O)(=O)NCCCCCC(=O)N[C@@H](CCC(=O)NCCOCCOCC(=O)NCCCC[C@H](NC(=O)[C@H](C)NC(=O)[C@H](C)NC(=O)[C@H](CCC(N)=O)NC(=O)CNC(=O)[C@H](CCC(=O)O)NC(=O)[C@H](CC(C)C)NC(=O)[C@H](Cc5ccc(O)cc5)NC(=O)[C@H](CO)NC(=O)[C@H](CO)NC(=O)[C@@H](NC(=O)[C@H](CC(=O)O)NC(=O)[C@H](CO)NC(=O)[C@@H](NC(=O)[C@H](Cc5ccccc5)NC(=O)[C@@H](NC(=O)CNC(=O)[C@H](CCC(=O)O)NC(=O)C(C)(C)NC(=O)[C@@H](N)Cc5c[nH]cn5)[C@@H](C)O)[C@@H](C)O)C(C)C)C(=O)N[C@@H](CCC(=O)O)C(=O)N[C@@H](Cc5ccccc5)C(=O)N[C@H](C(=O)N[C@@H](C)C(=O)N[C@@H](Cc5c[nH]c6ccccc56)C(=O)N[C@@H](CC(C)C)C(=O)N[C@H](C(=O)N[C@@H](CCCNC(=N)N)C(=O)NCC(=O)N[C@@H](CCCNC(=N)N)C(=O)NCC(=O)O)C(C)C)[C@@H](C)CC)C(=O)O)c4)cc3C)cc2)cc1,3.29,0.63,
CCOc1ccc(Nc2ccc(/C(=C3C=C/C(=[N+](\CC)Cc4cccc(S(=O)(=O)[O-])c4)C=C/3C)c3ccc(N(CC)Cc4cccc(S(=O)(=O)NCCCCCC(=O)NCCOCCOCCOCCOCCOCCOCCOCCOCCC(=O)NCCCC[C@H](NC(=O)[C@H](C)NC(=O)[C@H](C)NC(=O)[C@H](CCC(N)=O)NC(=O)CNC(=O)[C@H](CCC(=O)O)NC(=O)[C@H](CC(C)C)NC(=O)[C@H](Cc5ccc(O)cc5)NC(=O)[C@H](CO)NC(=O)[C@H](CO)NC(=O)[C@@H](NC(=O)[C@H](CC(=O)O)NC(=O)[C@H](CO)NC(=O)[C@@H](NC(=O)[C@H](Cc5ccccc5)NC(=O)[C@@H](NC(=O)CNC(=O)[C@H](CCC(=O)O)NC(=O)C(C)(C)NC(=O)[C@@H](N)Cc5c[nH]cn5)[C@@H](C)O)[C@@H](C)O)C(C)C)C(=O)N[C@@H](CCC(=O)O)C(=O)N[C@@H](Cc5ccccc5)C(=O)N[C@H](C(=O)N[C@@H](C)C(=O)N[C@@H](Cc5c[nH]c6ccccc56)C(=O)N[C@@H](CC(C)C)C(=O)N[C@H](C(=O)N[C@@H](CCCNC(=N)N)C(=O)NCC(=O)N[C@@H](CCCNC(=N)N)C(=O)NCC(=O)O)C(C)C)[C@@H](C)CC)c4)cc3C)cc2)cc1,2.44,0.16,0.93
CCOc1ccc(Nc2ccc(/C(=C3C=C/C(=[N+](\CC)Cc4ccc(S(=O)(=O)[O-])cc4)C=C/3C)c3ccc(N(CC)Cc4cccc(S(=O)(=O)NCCCCCC(=O)NCc5ccc(C(=O)NCCCC[C@H](NC(=O)[C@H](C)NC(=O)[C@H](C)NC(=O)[C@H](CCC(N)=O)NC(=O)CNC(=O)[C@H](CCC(=O)O)NC(=O)[C@H](CC(C)C)NC(=O)[C@H](Cc6ccc(O)cc6)NC(=O)[C@H](CO)NC(=O)[C@H](CO)NC(=O)[C@@H](NC(=O)[C@H](CC(=O)O)NC(=O)[C@H](CO)NC(=O)[C@@H](NC(=O)[C@H](Cc6ccccc6)NC(=O)[C@@H](NC(=O)CNC(=O)[C@H](CCC(=O)O)NC(=O)C(C)(C)NC(=O)[C@@H](N)Cc6c[nH]cn6)[C@@H](C)O)[C@@H](C)O)C(C)C)C(=O)N[C@@H](CCC(=O)O)C(=O)N[C@@H](Cc6ccccc6)C(=O)N[C@H](C(=O)N[C@@H](C)C(=O)N[C@@H](Cc6c[nH]c7ccccc67)C(=O)N[C@@H](CC(C)C)C(=O)N[C@H](C(=O)N[C@@H](CCCNC(=N)N)C(=O)NCC(=O)N[C@@H](CCCNC(=N)N)C(=O)NCC(=O)O)C(C)C)[C@@H](C)CC)cc5)c4)cc3C)cc2)cc1,3.22,1.08,4.2

# The remaining compounds from weak to strong by EC50 [1], led by results:
EC50 [1] [pM],EC50 [2] [pM],EC50 [3] [pM],SMILES
14.5,3.35,,CCOc1ccc(Nc2ccc(/C(=C3C=C/C(=[N+](\CC)Cc4cccc(S(=O)(=O)[O-])c4)C=C/3C)c3ccc(N(CC)Cc4cccc(S(=O)(=O)NCCCCCC(=O)NCCOCCOCC(=O)NCCCC[C@H](NC(=O)[C@H](C)NC(=O)[C@H](C)NC(=O)[C@H](CCC(N)=O)NC(=O)CNC(=O)[C@H](CCC(=O)O)NC(=O)[C@H](CC(C)C)NC(=O)[C@H](Cc5ccc(O)cc5)NC(=O)[C@H](CO)NC(=O)[C@H](CO)NC(=O)[C@@H](NC(=O)[C@H](CC(=O)O)NC(=O)[C@H](CO)NC(=O)[C@@H](NC(=O)[C@H](Cc5ccccc5)NC(=O)[C@@H](NC(=O)CNC(=O)[C@H](CCC(=O)O)NC(=O)C(C)(C)NC(=O)[C@@H](N)Cc5c[nH]cn5)[C@@H](C)O)[C@@H](C)O)C(C)C)C(=O)N[C@@H](CCC(=O)O)C(=O)N[C@@H](Cc5ccccc5)C(=O)N[C@H](C(=O)N[C@@H](C)C(=O)N[C@@H](Cc5c[nH]c6ccccc56)C(=O)N[C@@H](CC(C)C)C(=O)N[C@H](C(=O)N[C@@H](CCCNC(=N)N)C(=O)NCC(=O)N[C@@H](CCCNC(=N)N)C(=O)NCC(=O)O)C(C)C)[C@@H](C)CC)c4)cc3C)cc2)cc1
9.1,1.17,2.92,CCOc1ccc(Nc2ccc(/C(=C3C=C/C(=[N+](\CC)Cc4cccc(S(=O)(=O)[O-])c4)C=C/3C)c3ccc(N(CC)Cc4cccc(S(=O)(=O)NCCCCCC(=O)N[C@@H](CCC(=O)NCCCC[C@H](NC(=O)[C@H](C)NC(=O)[C@H](C)NC(=O)[C@H](CCC(N)=O)NC(=O)CNC(=O)[C@H](CCC(=O)O)NC(=O)[C@H](CC(C)C)NC(=O)[C@H](Cc5ccc(O)cc5)NC(=O)[C@H](CO)NC(=O)[C@H](CO)NC(=O)[C@@H](NC(=O)[C@H](CC(=O)O)NC(=O)[C@H](CO)NC(=O)[C@@H](NC(=O)[C@H](Cc5ccccc5)NC(=O)[C@@H](NC(=O)CNC(=O)[C@H](CCC(=O)O)NC(=O)C(C)(C)NC(=O)[C@@H](N)Cc5c[nH]cn5)[C@@H](C)O)[C@@H](C)O)C(C)C)C(=O)N[C@@H](CCC(=O)O)C(=O)N[C@@H](Cc5ccccc5)C(=O)N[C@H](C(=O)N[C@@H](C)C(=O)N[C@@H](Cc5c[nH]c6ccccc56)C(=O)N[C@@H](CC(C)C)C(=O)N[C@H](C(=O)N[C@@H](CCCNC(=N)N)C(=O)NCC(=O)N[C@@H](CCCNC(=N)N)C(=O)NCC(=O)O)C(C)C)[C@@H](C)CC)C(=O)O)c4)cc3C)cc2)cc1
8.82,,,CCOc1ccc(Nc2ccc(/C(=C3C=C/C(=[N+](\CC)Cc4ccc(S(=O)(=O)[O-])cc4)C=C/3C)c3ccc(N(CC)Cc4cccc(S(=O)(=O)NCCCCCC(=O)NCCCC[C@H](NC(=O)[C@H](C)NC(=O)[C@H](C)NC(=O)[C@H](CCC(N)=O)NC(=O)CNC(=O)[C@H](CCC(=O)O)NC(=O)[C@H](CC(C)C)NC(=O)[C@H](Cc5ccc(O)cc5)NC(=O)[C@H](CO)NC(=O)[C@H](CO)NC(=O)[C@@H](NC(=O)[C@H](CC(=O)O)NC(=O)[C@H](CO)NC(=O)[C@@H](NC(=O)[C@H](Cc5ccccc5)NC(=O)[C@@H](NC(=O)CNC(=O)[C@H](CCC(=O)O)NC(=O)C(C)(C)NC(=O)[C@@H](N)Cc5c[nH]cn5)[C@@H](C)O)[C@@H](C)O)C(C)C)C(=O)N[C@@H](CCC(=O)O)C(=O)N[C@@H](Cc5ccccc5)C(=O)N[C@H](C(=O)N[C@@H](C)C(=O)N[C@@H](Cc5c[nH]c6ccccc56)C(=O)N[C@@H](CC(C)C)C(=O)N[C@H](C(=O)N[C@@H](CCCNC(=N)N)C(=O)NCC(=O)N[C@@H](CCCNC(=N)N)C(=O)NCC(=O)O)C(C)C)[C@@H](C)CC)c4)cc3C)cc2)cc1
4.25,1.13,1.16,CCOc1ccc(Nc2ccc(/C(=C3C=C/C(=[N+](\CC)Cc4cccc(S(=O)(=O)[O-])c4)C=C/3C)c3ccc(N(CC)Cc4cccc(S(=O)(=O)NCCCCCC(=O)N[C@@H](CS(=O)(=O)O)C(=O)NCCOCCOCC(=O)NCCCC[C@H](NC(=O)[C@H](C)NC(=O)[C@H](C)NC(=O)[C@H](CCC(N)=O)NC(=O)CNC(=O)[C@H](CCC(=O)O)NC(=O)[C@H](CC(C)C)NC(=O)[C@H](Cc5ccc(O)cc5)NC(=O)[C@H](CO)NC(=O)[C@H](CO)NC(=O)[C@@H](NC(=O)[C@H](CC(=O)O)NC(=O)[C@H](CO)NC(=O)[C@@H](NC(=O)[C@H](Cc5ccccc5)NC(=O)[C@@H](NC(=O)CNC(=O)[C@H](CCC(=O)O)NC(=O)C(C)(C)NC(=O)[C@@H](N)Cc5c[nH]cn5)[C@@H](C)O)[C@@H](C)O)C(C)C)C(=O)N[C@@H](CCC(=O)O)C(=O)N[C@@H](Cc5ccccc5)C(=O)N[C@H](C(=O)N[C@@H](C)C(=O)N[C@@H](Cc5c[nH]c6ccccc56)C(=O)N[C@@H](CC(C)C)C(=O)N[C@H](C(=O)N[C@@H](CCCNC(=N)N)C(=O)NCC(=O)N[C@@H](CCCNC(=N)N)C(=O)NCC(=O)O)C(C)C)[C@@H](C)CC)c4)cc3C)cc2)cc1
